In the CheMixHub viscosity set:

Experiment: xn = mol fraction of the nth substance listed

NCCO + CCCCCCO
viscosity [mPa·s], 101.3 kPa
Conditions | x1 = 0.1 | x1 = 0.2 | x1 = 0.3 | x1 = 0.4 | x1 = 0.5 | x1 = 0.6 | x1 = 0.7 | x1 = 0.8 | x1 = 0.9
303.15 K | 4.07 | 4.48 | 5.04 | 5.68 | 6.54 | 7.62 | 8.84 | 10.4 | 12.3
313.15 K | 3.08 | 3.34 | 3.72 | 4.15 | 4.7 | 5.41 | 6.17 | 7.18 | 8.31
323.15 K | 2.37 | 2.57 | 2.84 | 3.13 | 3.51 | 3.98 | 4.49 | 5.16 | 5.88

C1CCCC1 + CCCCCO
101.3 kPa
Conditions | viscosity [mPa·s]
298.15 K, x1 = 0.0498 | 3.211
298.15 K, x1 = 0.0796 | 3.013
298.15 K, x1 = 0.1294 | 2.679
298.15 K, x1 = 0.1855 | 2.343
298.15 K, x1 = 0.2386 | 2.037
298.15 K, x1 = 0.2579 | 1.924
298.15 K, x1 = 0.2645 | 1.883
298.15 K, x1 = 0.2919 | 1.755
298.15 K, x1 = 0.3012 | 1.709
298.15 K, x1 = 0.351 | 1.481
298.15 K, x1 = 0.3712 | 1.406
298.15 K, x1 = 0.4221 | 1.221
298.15 K, x1 = 0.4544 | 1.118
298.15 K, x1 = 0.5073 | 0.992
298.15 K, x1 = 0.5388 | 0.926
298.15 K, x1 = 0.569 | 0.869
298.15 K, x1 = 0.596 | 0.827
298.15 K, x1 = 0.6189 | 0.79
298.15 K, x1 = 0.6343 | 0.771
298.15 K, x1 = 0.6621 | 0.739
298.15 K, x1 = 0.6893 | 0.707
298.15 K, x1 = 0.7282 | 0.685
298.15 K, x1 = 0.774 | 0.663
298.15 K, x1 = 0.8207 | 0.613
298.15 K, x1 = 0.8699 | 0.566
298.15 K, x1 = 0.9192 | 0.515
298.15 K, x1 = 0.9698 | 0.447
308.15 K, x1 = 0.0419 | 2.415
308.15 K, x1 = 0.1319 | 2.057
308.15 K, x1 = 0.2149 | 1.783
308.15 K, x1 = 0.2986 | 1.542
308.15 K, x1 = 0.3735 | 1.35
308.15 K, x1 = 0.4 | 1.287
308.15 K, x1 = 0.4437 | 1.19
308.15 K, x1 = 0.4804 | 1.118
308.15 K, x1 = 0.5152 | 1.049
308.15 K, x1 = 0.6882 | 0.817
308.15 K, x1 = 0.7025 | 0.798
308.15 K, x1 = 0.7196 | 0.781
308.15 K, x1 = 0.7454 | 0.752
308.15 K, x1 = 0.7726 | 0.727
308.15 K, x1 = 0.809 | 0.681
308.15 K, x1 = 0.8542 | 0.617
308.15 K, x1 = 0.9094 | 0.517
308.15 K, x1 = 0.955 | 0.418
318.15 K, x1 = 0.1213 | 1.768
318.15 K, x1 = 0.1891 | 1.573
318.15 K, x1 = 0.2652 | 1.36
318.15 K, x1 = 0.34 | 1.171
318.15 K, x1 = 0.4015 | 1.035
318.15 K, x1 = 0.4409 | 0.953
318.15 K, x1 = 0.4863 | 0.864
318.15 K, x1 = 0.5184 | 0.807
318.15 K, x1 = 0.5402 | 0.775
318.15 K, x1 = 0.5588 | 0.74
318.15 K, x1 = 0.6063 | 0.67
318.15 K, x1 = 0.665 | 0.593
318.15 K, x1 = 0.7127 | 0.537
318.15 K, x1 = 0.7882 | 0.467
318.15 K, x1 = 0.8688 | 0.405
318.15 K, x1 = 0.9451 | 0.359

C=CCc1ccc2c(c1)OCO2 + CCCCCOC(C)=O
298.15 K, 101 kPa
Conditions | viscosity [mPa·s]
x1 = 0.053 | 0.833
x1 = 0.232 | 1.01

c1ccc(-c2ccccc2)cc1 + CCCCCOC(C)=O
298.15 K, 101 kPa
Conditions | viscosity [mPa·s]
x1 = 0.0249 | 0.803
x1 = 0.0367 | 0.8121

CCC(=O)CC + CCCCN
303.15 K, 101.33 kPa
Conditions | viscosity [mPa·s]
x2 = 0.1145 | 0.519
x2 = 0.2006 | 0.59
x2 = 0.3211 | 0.678
x2 = 0.417 | 0.735
x2 = 0.5421 | 0.784
x2 = 0.7264 | 0.752
x2 = 0.8234 | 0.681
x2 = 0.8922 | 0.62
